Reference: patent publication US9440914B2, “Method for treating glioblastomas and other tumors” (THE FEINSTEIN INSTITUTE FOR MEDICAL RESEARCH, priority 2013, dated 2016)

Experiments:
[1] = tested on: microglia; test: glioblastoma cell-stimulated microglia invasion (transwell); type: cell-based, murine; conditions: GL261 in bottom well, microglia in BME, 48 h; read-out: IC50 for inhibition of GL261-stimulated microglia invasion
Description: To measure the invasion of microglia toward glioblastoma cells in vitro, a variant of the glioblastoma cell invasion assay was used. First, 15×10^4 G1261 cells were plated in MSFM medium overnight and subsequently were placed in serum free medium. Subsequently, 5×10^4 microglia cells were embedded in 50 μL, of 10 mg/mL BME with or without 200 nM semapimod, placed in a 8 μm transwell (previously coated with 1 μg/mL fibronectin on the bottom side of the 8 μm filter to maintain adhesion of the cells that invaded through the filter) and allowed to polymerize for 30 min at 37° C. The transwell chambers were then placed above the previously plated GL261. After 48 h of incubation, the chambers were fixed in 3.7% formaldehyde in PBS.
The cells were stained with 0.2% crystal violet in 2% ethanol. The remaining BME was carefully removed and the inserts were allowed to dry. Cells attached to the bottom of the filter were imaged as for the invasion assay and the total number of invaded microglia was determined.
Semapimod inhibits glioblastoma-induced microglia invasion in vitro: Microglia extensively infiltrate glial tumors (5-7). […] This stimulatory effect is abolished by semapimod, with an IC50 of approximately 60 nM.

[2] = tested on: GL261 cells; test: colony formation assay of GL261 with or without microglia and irradiation; type: cell-based, murine; conditions: 200 nM; for effect on microglia-stimulated GL261 survival (colony formation): co-culture with microglia
Description: Colony Formation Assay: G1261 cells and microglia were labeled as described for the invasion assay and were co-cultured in serum overnight and then changed to serum free medium for 48 h in the absence of serum at a 1:1 ratio at a density of 5×10^5 per well of a 6-well plate in the presence or absence of 200 nM semapimod. Subsequently, cells were subjected to 3 Gy of X-ray irradiation using a Radionics 160 kV irradiator. Two days after irradiation, cells were trypsinized, counted using a fluorescence microscope and 500 GL261 cells were plated in 6 cm dishes containing 10% FBS MSFM medium. Colony formation was allowed to proceed for 12 days, with medium changes every other day. Subsequently, the cells were fixed in 3.7% formaldehyde in PBS and stained with 0.2% (w/v) sulpharhodamine B (SRB) dye in 1% acetic acid for 20 min. The dishes were washed with 1% glacial acetic acid and allowed to dry. Plates were scanned and processed using Photoshop 5 (Adobe). Images were changed to grayscale and background threshold intensity was set. Colonies were counted automatically by Image J (rsbweb.nih.gov/ij/) and the numbers graphed.
Semapimod inhibits microglia-stimulated glioblastoma cell survival: A critical problem of malignant glioblastoma is its strong resistance to ionizing radiation (IR) and other therapeutic modalities (21). The role of microglia in glioblastoma cell survival has not been studied thus far. It was therefore examined whether microglia can enhance the survival of GL216 cells after IR and whether semapimod interferes with this function. GL261 cells were plated either in the presence or absence of microglia with or without semapimod (200 nM) for 2 days, followed by radiation treatment (3 Gy). Two days later, glioblastoma cell viability was assayed using a standard colony formation assay. […] In the presence of radiation, the stimulatory effect of microglia on glioblastoma cell survival is more marked (50%) and this effect is also abolished by semapimod (FIG. 2B).

[3] = tested on: SK-NEP1 human ES cells; test: metastatic Ewing's Sarcoma mouse model (SK-NEP1 implanted into kidney); type: in vivo, athymic mice
Description: FIG. 8A-8B. CNI-1493 decreases primary tumor size and metastatic burden in a metastatic Ewing's Sarcoma mouse model. 10^6 SK-ENP1 cells were implanted into the kidneys of nude mice and intraperitoneal treatment with CNI-1493 (5 mg/kg/day) or vehicle was initiated one week later. After six weeks of treatment, mice were sacrificed and assessed for primary and metastatic tumor burden. […] Metastatic tumor burden was evaluated with hematoxylin and eosin stained tissue sections by microscopy and calculating surface area per tissue section per mouse using ImageJ software (B).
(§1) In vivo, human ES cells (SK-NEP1) were surgically implanted into the left kidney of athymic mice. Mice were treated for 7 weeks with CNI-1493 or vehicle. Lung parenchyma was assessed for metastases utilizing both H&E and immunohistochemistry for the ES-specific CD99 and endothelial-specific CD31 markers. In vitro, primary macrophages isolated from human blood were polarized to M1 or M2 phenotypes by exposure to GM-CSF or M-CSF and activated with IFN-γ and LPS or IL-4. Cells were co-cultured with polarized macrophages and underwent proliferation and invasion assays in the presence or absence of CNI-1493.

[4] = tested on: SK-NEP1 cells with M2 macrophages; test: invasion assay of SK-NEP1 co-cultured with polarized primary macrophages; type: cell-based, human; conditions: co-culture with M2 macrophages, p<0.01
Description: FIG. 7. CNI-1493 inhibits tumor invasion in vitro through in the presence of macrophages. When co-cultured with SK-NEP1, macrophages polarized to express the M2 phenotype induced increased tumor cell invasion. This increase in invasion was reversed when co-cultures were exposed to 200 nM CNI-1493. Error bars represent standard deviation.
as §1

[5] = tested on: ES cells (SK-NEP1); test: proliferation assay of ES cells co-cultured with polarized macrophages; type: cell-based, human; conditions: co-culture with polarized macrophages
Description: as §1

[6] = tested on: GL261 cells with microglia; test: concentration dependence on microglia-stimulated invasion of glioma cells (24-well transwell); type: cell-based; conditions: GL261 3×10^5, microglia 1.5×10^5, 48 h
Description: FIG. 11. […] GL261 cells (3×10^5) and microglia (1.5×10^5) were embedded in 50 μl of basement membrane extract in the presence of the indicated concentrations of semapimod (SMP) and CP1213, layered in a 24-well transwell and incubated for 48 h. The number of invading GL261 cells was determined. Data shown represent the average+/−SD of between 2 and 5 independent experiments, each performed in duplicate.
The concentration dependence of the inhibitory effect of semapimod or CP1213 was investigated on microglia-stimulated invasion of glioma cells. GL261 cells (3×10^5) and microglia (1.5×10^5) were embedded in 50 μl of basement membrane extract in the presence of the indicated concentrations of semapimod (SMP) and CP1213, layered in a 24-well transwell and incubated for 48 h. The number of invading GL261 cells was determined. Data are shown in FIG. 11 and represent the average+/−SD of between 2 and 5 independent experiments, each performed in duplicate. The data support a method of treating a glioma, by inhibiting microglia-stimulated invasion processes with guanylhydrazones.

For `C/C(=N\NC(=N)N)c1cc(NC(=O)CCCCCCCCC(=O)Nc2cc(/C(C)=N/NC(=N)N)cc(/C(C)=N/NC(=N)N)c2)cc(/C(C)=N/NC(=N)N)c1` [semapimod], the IC50 [1] was ~60 nM, the “effect on microglia-stimulated GL261 survival (colony formation)” value ([2]; 3 Gy radiation) was “abolished” and the “effect on microglia-stimulated GL261 survival (colony formation)” value ([2]; absence of radiation) was “abolishes”. The “effect on survival potential of glioblastoma cell monocultures” value ([2]; no microglia) was “does not affect”, the “primary tumor size (effect in words)” value ([3]; intraperitoneal 5 mg/kg/day) was “significantly reduce” and the “incidence of metastatic disease” value ([3]; intraperitoneal 5 mg/kg/day, p=0.055) was 21%. For the same molecule, the “lung metastases by immunohistochemistry” value ([3]; lung tissue, CD99/CD31) was “micrometastases confined to the vasculature”, the “overall metastatic tumor burden” value ([3]; treated 7 weeks, versus vehicle, p<0.05) was “significantly decreased” and the primary tumor size ([3]; treated 7 weeks, control 7.0±5.2 g, p=0.54, not affected) was 5.7 ± 3.3 g. The “effect on M2 macrophage-enhanced ES cellular invasion” value [4] was “strongly decreased”, the “effect on ES cellular proliferation” value [5] was “unaffected” and the “effect on microglia-stimulated invasion of GL261 glioma cells (concentration dependence)” value [6] was “inhibitory effects”.
